According to patent US8668921B2, “Lipase inhibitors” (Suntory Holdings Limited, priority 2004, dated 2014):

Test system: not given
Assay: not given
Settings: reported in the literature; cited from earlier work

For OC1(c2ccc(Cl)cc2)c2ccccc2C2=NCCN21 (stereo not drawn) [Mazindol], the adverse side effects is listed as “dry mouth, constipation, stomach discomfort and nausea/vomiting”.
For CCCCCCCCCCC[C@@H](C[C@@H]1OC(=O)[C@H]1CCCCCC)OC(=O)[C@H](CC(C)C)NC=O [Xenical], the adverse side effects is listed as “fatty stools, increased stool frequency, loose stools, diarrhea and abdominal pain”.

Molecular target: T1, porcine pancreatic lipase (Sus scrofa, UniProt P00591)
T1 construct: purchased Sigma
T1 sequence (P00591 1-450): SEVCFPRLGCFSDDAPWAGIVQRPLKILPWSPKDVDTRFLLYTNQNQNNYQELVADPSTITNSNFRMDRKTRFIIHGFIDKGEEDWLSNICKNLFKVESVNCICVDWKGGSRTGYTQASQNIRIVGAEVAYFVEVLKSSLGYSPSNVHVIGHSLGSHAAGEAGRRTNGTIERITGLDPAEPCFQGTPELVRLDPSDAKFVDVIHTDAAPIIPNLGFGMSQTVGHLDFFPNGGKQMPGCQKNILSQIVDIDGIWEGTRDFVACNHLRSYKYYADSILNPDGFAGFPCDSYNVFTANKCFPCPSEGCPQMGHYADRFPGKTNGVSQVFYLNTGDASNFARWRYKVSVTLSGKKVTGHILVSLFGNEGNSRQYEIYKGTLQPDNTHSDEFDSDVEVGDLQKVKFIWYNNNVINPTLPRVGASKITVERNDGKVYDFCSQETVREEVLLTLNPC
Assay: Lipase inhibitory activity assay (4-MUO fluorescent substrate)
Type: biochemical
Settings: method of Example 1
Method: A lipase activity assay was performed by using the oleate ester of fluorescent 4-methylumbelliferone (4-MUO) as a substrate to measure the fluorescence of 4-methylumbelliferone produced by reaction.
The buffer used for the assay was 13 mM Tris-HCl (pH 8.0) containing 150 mM NaCl, 1.36 mM CaCl2. The enzyme assay was performed using a 0.1 M solution of the substrate 4-MUO (Sigma) in DMSO diluted 1:1000 in said buffer and a solution of porcine pancreatic lipase (Sigma) prepared at 400 U/ml also in said buffer.
An enzymatic reaction was started by adding 25 μl of the lipase/buffer solution after 50 μl of the 4-MUO/buffer solution and 25 μl of distilled water (or an aqueous solution of each sample) were added and mixed in a 96-well microplate at 25° C. After the reaction was performed for 30 minutes, the reaction was stopped by adding 100 μl of a 0.1 M citrate buffer (pH 4.2) and the fluorescence of 4-methylumbelliferone produced by the reaction (excitation 355 nm, emission 460 nm) was measured using a fluorescence plate reader (Fluoroskan Asent CF from Labsystems).
The inhibitory activity of each test sample was determined as IC50(μM), i.e. the amount of the sample giving 50% inhibition of the activity of the control (distilled water).

In the case of “(−)-epigallocatechin 3-O-gallate [(−)-epigallocatechin 3-O-gallate (4)]”, the “lipase inhibitory activity (in words)” value is reported as “strongest activity among the major catechins”.

Same assay, conditions: porcine pancreatic lipase, 4-MUO substrate, 25° C., 30 minutes, pH 8.0

Point of comparison: “(−)-epigallocatechin 3-O-gallate [(−)-epigallocatechin 3-O-gallate (4)]”, IC50 284 nM. Against it:
- Oc1cc(O)c2c(c1)OC(c1ccc(O)c(O)c1)C(O)C2 (single isomer, unassigned; (+)) [(+)-catechin (5), (+)-catechin] — higher, > 690000 nM
- Oc1cc(O)c2c(c1)O[C@H](c1cc(O)c(O)c(O)c1)[C@@H](O)C2 [(+)-gallocatechin (7), (+)-gallocatechin] — higher, > 163000 nM
- O=C(O[C@@H]1Cc2c(O)cc(O)cc2O[C@@H]1c1ccc(O)c(O)c1)c1cc(O)c(O)c(O)c1 [(−)-epicatechin 3-O-gallate (2), (−)-epicatechin 3-O-gallate] — within 1.5-fold, 271 nM
- Oc1cc(O)c2c(c1)O[C@H](c1ccc(O)c(O)c1)[C@H](O)C2 [(−)-epicatechin (1), (−)-epicatechin] — higher, > 21600 nM
- Oc1cc(O)c2c(c1)O[C@H](c1cc(O)c(O)c(O)c1)[C@H](O)C2 [(−)-epigallocatechin (3), (−)-epigallocatechin] — higher, > 20400 nM
- O=C(O[C@@H]1Cc2c(O)cc(O)cc2O[C@H]1c1cc(O)c(O)c(O)c1)c1cc(O)c(O)c(O)c1 [(−)-gallocatechin 3-O-gallate (8), (−)-gallocatechin 3-O-gallate] — within 1.5-fold, 349 nM
- O=C(OC1Cc2c(O)cc(O)c(C(c3cc(O)c(O)c(O)c3)C(Cc3c(O)cc(O)cc3O)OC(=O)c3cc(O)c(O)c(O)c3)c2OC1c1cc(O)c(O)c(O)c1)c1cc(O)c(O)c(O)c1 (stereo not drawn) [assamicain A (9), assamicain A] — 2.4-fold lower, 120 nM
- O=C(OC1Cc2c(O)cc(O)c(C(c3cc(O)c(O)c(O)c3)C(Cc3c(O)cc(O)cc3O)OC(=O)c3cc(O)c(O)c(O)c3)c2OC1c1cc(O)c(O)c(O)c1)c1cc(O)c(O)c(O)c1 (stereo not drawn) [assamicain B (10), assamicain B] — 1.5-fold lower, 186 nM
- O=C1C=C2c3c(cc(O)c4c3O[C@H](c3ccc(O)c(O)c3)[C@@H](O)C4)OC23C[C@]1(O)O[C@H]1Cc2c(O)cc(O)cc2O[C@@H]13 [dehydro-dicatechin A (14), dehydro-dicatechin A] — 11-fold higher, 3090 nM
- O=C(O[C@@H]1Cc2c(O)cc(O)cc2O[C@@H]1c1cc(O)c(O)c2c(=O)c(O)cc([C@H]3Oc4cc(O)cc(O)c4C[C@H]3O)cc12)c1cc(O)c(O)c(O)c1 [theaflavin 3′-O-gallate (16), theaflavin 3′-O-gallate] — 2.5-fold lower, 112 nM
- O=c1c(O)cc([C@H]2Oc3cc(O)cc(O)c3C[C@H]2O)cc2c([C@H]3Oc4cc(O)cc(O)c4C[C@H]3O)cc(O)c(O)c12 [theaflavin (15), theaflavin] — 2.7-fold lower, 106 nM
- O=C(O[C@@H]1Cc2c(O)cc(O)cc2O[C@@H]1c1cc(O)c(O)c(O)c1-c1c([C@H]2Oc3cc(O)cc(O)c3C[C@H]2OC(=O)c2cc(O)c(O)c(O)c2)cc(O)c(O)c1O)c1cc(O)c(O)c(O)c1 [theasinensin A (11), theasinensin A] — 2-fold lower, 142 nM
- O=C(O[C@@H]1Cc2c(O)cc(O)cc2O[C@@H]1c1cc(O)c(O)c(O)c1-c1c([C@H]2Oc3cc(O)cc(O)c3C[C@H]2O)cc(O)c(O)c1O)c1cc(O)c(O)c(O)c1 [theasinensin B (12), theasinensin B] — within 1.5-fold, 276 nM
- O=C(O[C@@H]1Cc2c(O)cc(O)cc2O[C@@H]1c1cc(O)c(O)c(O)c1-c1c([C@H]2Oc3cc(O)cc(O)c3C[C@H]2OC(=O)c2cc(O)c(O)c(O)c2)cc(O)c(O)c1O)c1cc(O)c(O)c(O)c1 [theasinensin D (13), theasinensin D] — 2.9-fold lower, 98 nM
